Results published in ChEMBL document CHEMBL1201862, “PubChem BioAssay data set” (2004).
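Interpolation was linear, between the two tested concentrations surrounding the appropriate level; five concentrations were tested over 48 hours in 96-well plates. The concentration for 50% growth inhibition is given as GI50.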 Calls of active or inactive are those of the source. Rule as the data show it: active = GI50 up to about 1.1 µM and inactive = higher.

What was measured:
Assay in all cases: DTP human tumour cell line panel, 48 h
MCF7 = test system: MCF7
MDA-N = test system: MDA-N
SF-295 = test system: SF-295
HT-29 = test system: HT-29
CAKI-1 = test system: CAKI-1
A549 = test system: A549
U-251 = test system: U-251
SF-539 = test system: SF-539
HCT-116 = test system: HCT-116
OVCAR-5 = test system: OVCAR-5
T47D = test system: T47D
NCI/ADR-RES = test system: NCI/ADR-RES
SN12C = test system: SN12C
ACHN = test system: ACHN
CCRF-CEM = test system: CCRF-CEM
Hs-578T = test system: Hs-578T
NCI-H226 = test system: NCI-H226
786-0 = test system: 786-0
LOX IMVI = test system: LOX IMVI
NCI-H460 = test system: NCI-H460
NCI-H522 = test system: NCI-H522
EKVX = test system: EKVX
A498 = test system: A498
SK-MEL-28 = test system: SK-MEL-28
HCC 2998 = test system: HCC 2998
HOP-92 = test system: HOP-92
RPMI-8226 = test system: RPMI-8226
MDA-MB-435 = test system: MDA-MB-435
UACC-257 = test system: UACC-257
SNB-19 = test system: SNB-19
DU-145 = test system: DU-145
COLO 205 = test system: COLO 205
MOLT-4 = test system: MOLT-4
SW-620 = test system: SW-620
BT-549 = test system: BT-549
NCI-H23 = test system: NCI-H23
M14 = test system: M14
OVCAR-3 = test system: OVCAR-3
MDA-MB-231 = test system: MDA-MB-231
SF-268 = test system: SF-268
IGROV-1 = test system: IGROV-1
TK-10 = test system: TK-10
SK-OV-3 = test system: SK-OV-3
SNB-75 = test system: SNB-75
SK-MEL-5 = test system: SK-MEL-5
OVCAR-8 = test system: OVCAR-8
Malme-3M = test system: Malme-3M
HCT-15 = test system: HCT-15
OVCAR-4 = test system: OVCAR-4
UACC-62 = test system: UACC-62
PC-3 = test system: PC-3
UO-31 = test system: UO-31
KM12 = test system: KM12
K562 = test system: K562
HL-60 = test system: HL-60
SK-MEL-2 = test system: SK-MEL-2

COc1cc2c(cc1OC)C13CCN4CC5=CCOC6CC(=O)N2C1C6C5CC43O (stereo unspecified)
GI50 (MCF7): > 100 µM (inactive) | GI50 (MDA-N): > 100 µM (inactive) | GI50 (SF-295): > 100 µM (inactive) | GI50 (HT-29): > 100 µM (inactive) | GI50 (CAKI-1): > 100 µM (inactive) | GI50 (A549): > 100 µM (inactive) | GI50 (U-251): > 100 µM (inactive) | GI50 (SF-539): > 100 µM (inactive) | GI50 (HCT-116): > 100 µM (inactive) | GI50 (OVCAR-5): > 100 µM (inactive) | GI50 (T47D): > 100 µM (inactive) | GI50 (NCI/ADR-RES): > 100 µM (inactive) | GI50 (SN12C): > 100 µM (inactive) | GI50 (ACHN): > 100 µM (inactive) | GI50 (CCRF-CEM): > 100 µM (inactive) | GI50 (Hs-578T): > 100 µM (inactive) | GI50 (NCI-H226): > 100 µM (inactive) | GI50 (786-0): > 100 µM (inactive) | GI50 (LOX IMVI): > 100 µM (inactive) | GI50 (NCI-H460): > 100 µM (inactive) | GI50 (NCI-H522): > 100 µM (inactive) | GI50 (EKVX): > 100 µM (inactive) | GI50 (A498): > 100 µM (inactive) | GI50 (SK-MEL-28): > 100 µM (inactive) | GI50 (HCC 2998): > 100 µM (inactive) | GI50 (HOP-92): > 100 µM (inactive) | GI50 (RPMI-8226): > 100 µM (inactive) | GI50 (MDA-MB-435): > 100 µM (inactive) | GI50 (UACC-257): > 100 µM (inactive) | GI50 (SNB-19): > 100 µM (inactive) | GI50 (DU-145): > 100 µM (inactive) | GI50 (COLO 205): > 100 µM (inactive) | GI50 (MOLT-4): > 100 µM (inactive) | GI50 (SW-620): > 100 µM (inactive) | GI50 (BT-549): > 100 µM (inactive) | GI50 (NCI-H23): > 100 µM (inactive) | GI50 (M14): > 100 µM (inactive) | GI50 (OVCAR-3): > 100 µM (inactive) | GI50 (MDA-MB-231): > 100 µM (inactive) | GI50 (SF-268): > 100 µM (inactive) | GI50 (IGROV-1): > 100 µM (inactive) | GI50 (TK-10): > 100 µM (inactive) | GI50 (SK-OV-3): > 100 µM (inactive) | GI50 (SNB-75): > 100 µM (inactive) | GI50 (SK-MEL-5): > 100 µM (inactive) | GI50 (OVCAR-8): > 100 µM (inactive) | GI50 (Malme-3M): > 100 µM (inactive) | GI50 (HCT-15): > 100 µM | GI50 (OVCAR-4): > 100 µM (inactive) | GI50 (UACC-62): > 100 µM (inactive) | GI50 (PC-3): > 100 µM (inactive) | GI50 (UO-31): > 100 µM (inactive) | GI50 (KM12): > 100 µM (inactive) | GI50 (K562): > 100 µM (inactive) | GI50 (HL-60): > 100 µM (inactive) | GI50 (SK-MEL-2): > 100 µM (inactive)
